Assay results reported in US20240238426A1, “PROTEIN ACYLATION MODULATION BY HETEROBIFUNCTIONAL MOLECULES” (THE SCRIPPS RESEARCH INSTITUTE, priority 2021, published 2024).

Legend:
[1] = molecular target: T1, FKBP12^F36V and the bromodomain of p300 (BRD-p300) (Homo sapiens, UniProt P62942+Q09472, F37V); experiment: GST-FKBP12^F36V/His-P300-BRD AlphaScreen assay, ternary complex formation; format: binding; details: FIG. 3B
T1 construct: A construct containing residues 2-108 of FKBP12^F36V in pGEX4t-1 vector; the BRD domain of p300 (BRD-p300); purchased) 31372; host or cells: E. coli BL21(DE3) (GST-FKBP12^F36V)
Description: GST-FKBP12^F36V/His-P300-BRD AlphaScreen Assay: GST-FKBP12^F36V and 6xHis-p300-BRD (active motif #31372) were diluted to 250 nM and 500 nM, in assay buffer (50 mM HEPES pH 7.4, 200 mM NaCl, 1 mM TCEP, and 0.1% BSA), […] of protein mixture was added to each well of a 1/2 area 96-well OptiPlate (PerkinElmer). Compounds were then added from DMSO stock to protein mixture ([…]) with 1% DMSO in final mixture. Plates were then shaken orbitally at room temperature for 1 h. Nickel Chelate AlphaLISA Acceptor and Glutathione AlphaLISA Donor beads (PerkinElmer) diluted to 20 ng/ml in assay buffer and […] beads mixture was added to each well. After a 1 h orbital shaking at room temperature. luminescence was measured on the Envision 2104 plate reader (PerkinElmer). Data were plotted and analyzed using GraphPad PRISM v8 and fit with ‘Bell-shaped’ dose response curve.

[2] = test system: p21 (CDKNIA), PUMA, MDM2, and GLS2; experiment: Immunoblot of p53 target gene expression in FKBP12^F36V-p53 H1299 cells; format: cell-based, Human
Description: (§1) Immunoblotting: Cells were harvested in cold DPBS by scraping and washed with cold DPBS twice. Cell pellets were resuspended in DPBS supplemented with 5 mM sodium butyrate, 20 mM Nicotinamide, and 1X Halt Protease Inhibitor Cocktail and lysed by sonication (15 ms on, 40 ms off, 15% amplitude, 1s total on x 3). Protein concentration was determined using DC Protein Assay (Bio-Rad) and absorbance read using a CLARIOstar plate reader following manufacturer's instructions. Samples with equal protein content were boiled in 4X SDS gel loading buffer for 10 min. Proteins were separated by 10%, 12.5%, or 15% SDS-polyacrylamide gel electrophoresis and transferred to PVDF membranes using Trans-Blot Turbo RTA Mini […] LF PVDF Transfer Kit (Bio-Rad). Membranes were incubated for 1 h at room temperature with blocking buffer, followed by incubating overnight at 4° C. with primary antibodies. After washing in TBST, the secondary antibodies were incubated with the membranes at room temperature for 1 h. The membranes were washed with TBST for three times and visualized on a Bio-Rad ChemiDoc MP Imaging System with Clarity Max Western ECL substrate (Bio-Rad) or SuperSignal West Femto Chemiluminescent substrate proprietary luminol and peroxide solution kit (Thermo Scientific Pierce).

[3] = test system: p21; experiment: Immunoblot of p21 expression in p53 H1299 cells without the FKBP12^F36V tag; format: cell-based, Human; details: indicated doses, 8 hr, FIG. 7D
Description: as §1

[4] = test system: TP53 target genes; experiment: RNA-seq analysis of H1299 wt cells; format: cell-based, Human; details: 3 μM AceTAG-1, FIG. 7F

T1 sequence (P62942 2-108 F37V): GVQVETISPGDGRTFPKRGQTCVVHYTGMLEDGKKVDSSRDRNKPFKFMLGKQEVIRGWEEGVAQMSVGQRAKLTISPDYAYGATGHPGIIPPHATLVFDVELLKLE
T1 sequence (Q09472 1049-1156): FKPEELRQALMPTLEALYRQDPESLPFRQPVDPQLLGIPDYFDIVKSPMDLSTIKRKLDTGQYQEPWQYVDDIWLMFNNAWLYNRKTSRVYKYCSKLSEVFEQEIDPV

Structure (SMILES): CC[C@H](C(=O)N1CCCC[C@H]1C(=O)O[C@H](CCc1ccc(OC)c(OC)c1)c1cccc(OCC(=O)NCCOCCOCCC(=O)NCCOc2ccc(CCc3nc4cc(-c5c(C)noc5C)ccc4n3CCN3CCOCC3)cc2)c1)c1cc(OC)c(OC)c(OC)c1 [AceTAG-1, (R)-3-(3,4-dimethoxyphenyl)-1-(3-((15-(4-(2-(5-(3,5-dimethylisoxazol-4-yl)-1-(2-morpholinoethyl)-1H-benzo[d]imidazol-2-yl)ethyl)phenoxy)-2,12-dioxo-6,9-dioxa-3,13-diazapentadecyl)oxy)phenyl)propyl (S)-1-((S)-2-(3,4,5-trimethoxyphenyl)butanoyl)piperidine-2-carboxylate]
- concentration of maximum complex formation ([1]; FKBP12^F36V and BRD-p300, AlphaScreen): ~1 µM
- AceTAG-mediated ternary complex formation (AlphaScreen curve) ([1]; bell-shaped dose response fit): increased potence relative to other analogues
- p21 expression level at higher concentration ([2]; FIGS. 7A and 7B): reflected the ‘hook effect’
- p21 expression ([2]; indicated doses, 8 hr and 24 hr exposure, FIGS. 7A and 7B): strong dose-dependent expression
- expression of PUMA, MDM2, and GLS2 ([2]; indicated doses, FIG. 7A): insignificant effects
- p21 induction in H1299 cells expressing p53 without the FKBP12^F36V tag [3]: not observed
- changes of TP53 target genes in H1299 wt cells [4]: minimal changes
